Source: patent US12077503B2, “Substituted cyclic amides and their use as herbicides” (FMC CORPORATION, priority 2015, dated 2024)

Columns and labels:
Assay type in all cases: in vivo
[1] = system: barnyardgrass (Echinochloa crus-galli); experiment: Test G Pre-Emergence Protocol; details: Echinochloa crus-galli, pre-emergence, 312 h, evaluated after 13 days; for pest or weed control at 15.625 g/ha: 15.625 g ai/ha; for pest or weed control at 15.625 g/ha / pest or weed control at 250 g/ha: read-out: Barnyardgrass damage rating (100=total damage to plant; 0=no damage to plant); for pest or weed control at 62.5 g/ha: 62.5 g ai/ha, 100=total damage to plant, 0=no damage to plant, read-out: Barnyardgrass damage rating; for pest or weed control at 250 g/ha: 250 g ai/ha
Method in brief: (§1)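 Spraying took place one day after sowing, at 15.625, 62.5 or 250 g/ha, using an acetone/water (50:50) spray solution containing 0.5% Tween 20. Plants were kept under glasshouse conditions (24/16 °C, 14 h light, 65% humidity, watered twice daily), and injury was rated 0–100 at day 13.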

[2] = system: velvetleaf (Abutilon theophrasti); experiment: Test G Pre-Emergence Protocol; details: Abutilon theophrasti, pre-emergence, 312 h, evaluated after 13 days; for pest or weed control at 15.625 g/ha: 15.625 g ai/ha; for pest or weed control at 15.625 g/ha / pest or weed control at 250 g/ha: read-out: Velvetleaf damage rating (100=total damage to plant; 0=no damage to plant); for pest or weed control at 62.5 g/ha: 62.5 g ai/ha, 100=total damage to plant, 0=no damage to plant, read-out: Velvetleaf damage rating; for pest or weed control at 250 g/ha: 250 g ai/ha
Method in brief: as §1

corn (Zea mays) [3] = experiment: Test G Pre-Emergence Protocol; details: Zea mays, pre-emergence, 312 h, evaluated after 13 days; for plant injury at 15.625 g/ha: 15.625 g ai/ha; for plant injury at 15.625 g/ha / plant injury at 250 g/ha: read-out: Corn damage rating (100=total damage to plant; 0=no damage to plant); for plant injury at 62.5 g/ha: 62.5 g ai/ha, 100=total damage to plant, 0=no damage to plant, read-out: Corn damage rating; for plant injury at 250 g/ha: 250 g ai/ha
Method in brief: as §1

[4] = system: redroot pigweed (Amaranthus retroflexus); experiment: Test G Pre-Emergence Protocol; details: Amaranthus retroflexus, pre-emergence, 312 h, evaluated after 13 days; for pest or weed control at 15.625 g/ha: 15.625 g ai/ha; for pest or weed control at 15.625 g/ha / pest or weed control at 250 g/ha: read-out: Pigweed, Redroot damage rating (100=total damage to plant; 0=no damage to plant); for pest or weed control at 62.5 g/ha: 62.5 g ai/ha, 100=total damage to plant, 0=no damage to plant, read-out: Pigweed, Redroot damage rating; for pest or weed control at 250 g/ha: 250 g ai/ha
Method in brief: as §1

[5] = system: ivy-leaved morning glory (Ipomoea hederacea); experiment: Test G Pre-Emergence Protocol; details: Ipomoea, pre-emergence, 312 h, evaluated after 13 days; for pest or weed control at 15.625 g/ha: 15.625 g ai/ha; for pest or weed control at 15.625 g/ha / pest or weed control at 250 g/ha: read-out: Morningglory, Ivy-leaved damage rating (100=total damage to plant; 0=no damage to plant); for pest or weed control at 62.5 g/ha: 62.5 g ai/ha, 100=total damage to plant, 0=no damage to plant, read-out: Morningglory, Ivy-leaved damage rating; for pest or weed control at 250 g/ha: 250 g ai/ha
Method in brief: as §1

[6] = system: giant foxtail (Setaria faberi); experiment: Test G Pre-Emergence Protocol; details: Setaria faberi, pre-emergence, 312 h, evaluated after 13 days; for pest or weed control at 15.625 g/ha: 15.625 g ai/ha; for pest or weed control at 15.625 g/ha / pest or weed control at 250 g/ha: read-out: Foxtail, Giant damage rating (100=total damage to plant; 0=no damage to plant); for pest or weed control at 62.5 g/ha: 62.5 g ai/ha, 100=total damage to plant, 0=no damage to plant, read-out: Foxtail, Giant damage rating; for pest or weed control at 250 g/ha: 250 g ai/ha
Method in brief: as §1

[7] = system: barnyardgrass (Echinochloa crus-galli); experiment: Test G Post-Emergence Protocol; details: Echinochloa crus-galli, post-emergence, 312 h, read-out: Barnyardgrass damage rating; for pest or weed control at 15.625 g/ha: 15.625 g ai/ha, evaluated after 13 days (100=total damage to plant; 0=no damage to plant); for pest or weed control at 62.5 g/ha: 62.5 g ai/ha; for pest or weed control at 62.5 g/ha / pest or weed control at 250 g/ha: evaluated after 13 days, 100=total damage to plant, 0=no damage to plant; for pest or weed control at 250 g/ha: 250 g ai/ha
Method in brief: (§2)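 Foliar application was made 8 days after sowing, using an aqueous spray of the active in acetone/water (50:50) with 0.5% Tween 20, at doses of 15.625, 62.5 or 250 g/ha. Injury was assessed 13 days later, where 100 meant the plant was fully damaged.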

[8] = system: velvetleaf (Abutilon theophrasti); experiment: Test G Post-Emergence Protocol; details: Abutilon theophrasti, post-emergence, 312 h, read-out: Velvetleaf damage rating; for pest or weed control at 15.625 g/ha: 15.625 g ai/ha, evaluated after 13 days (100=total damage to plant; 0=no damage to plant); for pest or weed control at 62.5 g/ha: 62.5 g ai/ha; for pest or weed control at 62.5 g/ha / pest or weed control at 250 g/ha: evaluated after 13 days, 100=total damage to plant, 0=no damage to plant; for pest or weed control at 250 g/ha: 250 g ai/ha
Method in brief: as §2

corn (Zea mays) [9] = experiment: Test G Post-Emergence Protocol; details: Zea mays, post-emergence, 312 h, read-out: Corn damage rating; for plant injury at 15.625 g/ha: 15.625 g ai/ha, evaluated after 13 days (100=total damage to plant; 0=no damage to plant); for plant injury at 62.5 g/ha: 62.5 g ai/ha; for plant injury at 62.5 g/ha / plant injury at 250 g/ha: evaluated after 13 days, 100=total damage to plant, 0=no damage to plant; for plant injury at 250 g/ha: 250 g ai/ha
Method in brief: as §2

[10] = system: redroot pigweed (Amaranthus retroflexus); experiment: Test G Post-Emergence Protocol; details: Amaranthus retroflexus, post-emergence, 312 h, read-out: Pigweed, Redroot damage rating; for pest or weed control at 15.625 g/ha: 15.625 g ai/ha, evaluated after 13 days (100=total damage to plant; 0=no damage to plant); for pest or weed control at 62.5 g/ha: 62.5 g ai/ha; for pest or weed control at 62.5 g/ha / pest or weed control at 250 g/ha: evaluated after 13 days, 100=total damage to plant, 0=no damage to plant; for pest or weed control at 250 g/ha: 250 g ai/ha
Method in brief: as §2

[11] = system: ivy-leaved morning glory (Ipomoea hederacea); experiment: Test G Post-Emergence Protocol; details: Ipomoea, post-emergence, 312 h, read-out: Morningglory, Ivy-leaved damage rating; for pest or weed control at 15.625 g/ha: 15.625 g ai/ha, evaluated after 13 days (100=total damage to plant; 0=no damage to plant); for pest or weed control at 62.5 g/ha: 62.5 g ai/ha; for pest or weed control at 62.5 g/ha / pest or weed control at 250 g/ha: evaluated after 13 days, 100=total damage to plant, 0=no damage to plant; for pest or weed control at 250 g/ha: 250 g ai/ha
Method in brief: as §2

[12] = system: giant foxtail (Setaria faberi); experiment: Test G Post-Emergence Protocol; details: Setaria faberi, post-emergence, 312 h, read-out: Foxtail, Giant damage rating; for pest or weed control at 15.625 g/ha: 15.625 g ai/ha, evaluated after 13 days (100=total damage to plant; 0=no damage to plant); for pest or weed control at 62.5 g/ha: 62.5 g ai/ha; for pest or weed control at 62.5 g/ha / pest or weed control at 250 g/ha: evaluated after 13 days, 100=total damage to plant, 0=no damage to plant; for pest or weed control at 250 g/ha: 250 g ai/ha
Method in brief: as §2

| SMILES | pest or weed control at 15.625 g/ha [1] | pest or weed control at 62.5 g/ha [1] | pest or weed control at 250 g/ha [1] | pest or weed control at 15.625 g/ha [2] | pest or weed control at 62.5 g/ha [2] | pest or weed control at 250 g/ha [2] | plant injury at 15.625 g/ha (corn (Zea mays) [3]) | plant injury at 62.5 g/ha (corn (Zea mays) [3]) | plant injury at 250 g/ha (corn (Zea mays) [3]) | pest or weed control at 15.625 g/ha [4] | pest or weed control at 62.5 g/ha [4] | pest or weed control at 250 g/ha [4] | pest or weed control at 15.625 g/ha [5] | pest or weed control at 62.5 g/ha [5] | pest or weed control at 250 g/ha [5] | pest or weed control at 15.625 g/ha [6] | pest or weed control at 62.5 g/ha [6] | pest or weed control at 250 g/ha [6] | pest or weed control at 15.625 g/ha [7] | pest or weed control at 62.5 g/ha [7] | other results |
| --- | --- | --- | --- | --- | --- | --- | --- | --- | --- | --- | --- | --- | --- | --- | --- | --- | --- | --- | --- | --- | --- |
| COCCOc1cc([C@@H]2CN(C)C(=O)[C@H]2C(=O)Nc2cccc(F)c2C)ccc1C (racemic) [Compound 1790] | 40% | 70% | 90% | 0% | 0% | 40% | 20% | 70% | 90% | 0% | 0% | 10% | 0% | 20% | 70% | 70% | 70% | 90% | 50% | 70% | pest or weed control at 250 g/ha [7]: 70%; pest or weed control at 15.625 g/ha [8]: 0%; pest or weed control at 62.5 g/ha [8]: 20%; pest or weed control at 250 g/ha [8]: 30%; plant injury at 15.625 g/ha (corn (Zea mays) [9]): 50%; plant injury at 62.5 g/ha (corn (Zea mays) [9]): 70%; plant injury at 250 g/ha (corn (Zea mays) [9]): 80%; pest or weed control at 15.625 g/ha [10]: 0%; pest or weed control at 62.5 g/ha [10]: 0%; pest or weed control at 250 g/ha [10]: 0%; pest or weed control at 15.625 g/ha [11]: 20%; pest or weed control at 62.5 g/ha [11]: 20%; pest or weed control at 250 g/ha [11]: 40%; pest or weed control at 15.625 g/ha [12]: 70%; pest or weed control at 62.5 g/ha [12]: 80%; pest or weed control at 250 g/ha [12]: 80% |
| Cc1cc([C@H]2CN(C)C(=O)[C@@H]2C(=O)Nc2ccccc2S(C)(=O)=O)cc(C(F)(F)F)c1 (racemic) [Compound 1795] | 30% | 70% | 80% | 0% | 0% | 10% | 0% | 40% | 80% | 0% | 20% | 30% | 0% | 10% | 60% | 60% | 80% | 90% | 20% | 70% | pest or weed control at 250 g/ha [7]: 70%; pest or weed control at 15.625 g/ha [8]: 0%; pest or weed control at 62.5 g/ha [8]: 0%; pest or weed control at 250 g/ha [8]: 20%; plant injury at 15.625 g/ha (corn (Zea mays) [9]): 0%; plant injury at 62.5 g/ha (corn (Zea mays) [9]): 40%; plant injury at 250 g/ha (corn (Zea mays) [9]): 70%; pest or weed control at 15.625 g/ha [10]: 0%; pest or weed control at 62.5 g/ha [10]: 20%; pest or weed control at 250 g/ha [10]: 30%; pest or weed control at 15.625 g/ha [11]: 10%; pest or weed control at 62.5 g/ha [11]: 20%; pest or weed control at 250 g/ha [11]: 70%; pest or weed control at 15.625 g/ha [12]: 60%; pest or weed control at 62.5 g/ha [12]: 80%; pest or weed control at 250 g/ha [12]: 80% |
| CN1C[C@H](c2ccc(F)c(C#N)c2)[C@@H](C(=O)Nc2ccccc2S(C)(=O)=O)C1=O (racemic) [Compound 1798] | 0% | 0% | 10% | 0% | 0% | 10% | 0% | 0% | 0% | 0% | 0% | 20% | 0% | 0% | 0% | 0% | 10% | 30% | 0% | 0% | pest or weed control at 250 g/ha [7]: 0%; pest or weed control at 15.625 g/ha [8]: 0%; pest or weed control at 62.5 g/ha [8]: 0%; pest or weed control at 250 g/ha [8]: 0%; plant injury at 15.625 g/ha (corn (Zea mays) [9]): 0%; plant injury at 62.5 g/ha (corn (Zea mays) [9]): 0%; plant injury at 250 g/ha (corn (Zea mays) [9]): 0%; pest or weed control at 15.625 g/ha [10]: 0%; pest or weed control at 62.5 g/ha [10]: 0%; pest or weed control at 250 g/ha [10]: 20%; pest or weed control at 15.625 g/ha [11]: 0%; pest or weed control at 62.5 g/ha [11]: 0%; pest or weed control at 250 g/ha [11]: 0%; pest or weed control at 15.625 g/ha [12]: 0%; pest or weed control at 62.5 g/ha [12]: 20%; pest or weed control at 250 g/ha [12]: 10% |
